Assay results as given in patent US10485815B2, “Substituted nucleosides, nucleotides and analogs thereof” (Alios BioPharma, Inc., priority 2012, dated 2019).
pEC50: −log10 of the molar value.

target: RSV polymerase (Human respiratory syncytial virus A, UniProt P28887); assay: biochemical; settings: not given
Sequence (P28887 whole entry, looked up): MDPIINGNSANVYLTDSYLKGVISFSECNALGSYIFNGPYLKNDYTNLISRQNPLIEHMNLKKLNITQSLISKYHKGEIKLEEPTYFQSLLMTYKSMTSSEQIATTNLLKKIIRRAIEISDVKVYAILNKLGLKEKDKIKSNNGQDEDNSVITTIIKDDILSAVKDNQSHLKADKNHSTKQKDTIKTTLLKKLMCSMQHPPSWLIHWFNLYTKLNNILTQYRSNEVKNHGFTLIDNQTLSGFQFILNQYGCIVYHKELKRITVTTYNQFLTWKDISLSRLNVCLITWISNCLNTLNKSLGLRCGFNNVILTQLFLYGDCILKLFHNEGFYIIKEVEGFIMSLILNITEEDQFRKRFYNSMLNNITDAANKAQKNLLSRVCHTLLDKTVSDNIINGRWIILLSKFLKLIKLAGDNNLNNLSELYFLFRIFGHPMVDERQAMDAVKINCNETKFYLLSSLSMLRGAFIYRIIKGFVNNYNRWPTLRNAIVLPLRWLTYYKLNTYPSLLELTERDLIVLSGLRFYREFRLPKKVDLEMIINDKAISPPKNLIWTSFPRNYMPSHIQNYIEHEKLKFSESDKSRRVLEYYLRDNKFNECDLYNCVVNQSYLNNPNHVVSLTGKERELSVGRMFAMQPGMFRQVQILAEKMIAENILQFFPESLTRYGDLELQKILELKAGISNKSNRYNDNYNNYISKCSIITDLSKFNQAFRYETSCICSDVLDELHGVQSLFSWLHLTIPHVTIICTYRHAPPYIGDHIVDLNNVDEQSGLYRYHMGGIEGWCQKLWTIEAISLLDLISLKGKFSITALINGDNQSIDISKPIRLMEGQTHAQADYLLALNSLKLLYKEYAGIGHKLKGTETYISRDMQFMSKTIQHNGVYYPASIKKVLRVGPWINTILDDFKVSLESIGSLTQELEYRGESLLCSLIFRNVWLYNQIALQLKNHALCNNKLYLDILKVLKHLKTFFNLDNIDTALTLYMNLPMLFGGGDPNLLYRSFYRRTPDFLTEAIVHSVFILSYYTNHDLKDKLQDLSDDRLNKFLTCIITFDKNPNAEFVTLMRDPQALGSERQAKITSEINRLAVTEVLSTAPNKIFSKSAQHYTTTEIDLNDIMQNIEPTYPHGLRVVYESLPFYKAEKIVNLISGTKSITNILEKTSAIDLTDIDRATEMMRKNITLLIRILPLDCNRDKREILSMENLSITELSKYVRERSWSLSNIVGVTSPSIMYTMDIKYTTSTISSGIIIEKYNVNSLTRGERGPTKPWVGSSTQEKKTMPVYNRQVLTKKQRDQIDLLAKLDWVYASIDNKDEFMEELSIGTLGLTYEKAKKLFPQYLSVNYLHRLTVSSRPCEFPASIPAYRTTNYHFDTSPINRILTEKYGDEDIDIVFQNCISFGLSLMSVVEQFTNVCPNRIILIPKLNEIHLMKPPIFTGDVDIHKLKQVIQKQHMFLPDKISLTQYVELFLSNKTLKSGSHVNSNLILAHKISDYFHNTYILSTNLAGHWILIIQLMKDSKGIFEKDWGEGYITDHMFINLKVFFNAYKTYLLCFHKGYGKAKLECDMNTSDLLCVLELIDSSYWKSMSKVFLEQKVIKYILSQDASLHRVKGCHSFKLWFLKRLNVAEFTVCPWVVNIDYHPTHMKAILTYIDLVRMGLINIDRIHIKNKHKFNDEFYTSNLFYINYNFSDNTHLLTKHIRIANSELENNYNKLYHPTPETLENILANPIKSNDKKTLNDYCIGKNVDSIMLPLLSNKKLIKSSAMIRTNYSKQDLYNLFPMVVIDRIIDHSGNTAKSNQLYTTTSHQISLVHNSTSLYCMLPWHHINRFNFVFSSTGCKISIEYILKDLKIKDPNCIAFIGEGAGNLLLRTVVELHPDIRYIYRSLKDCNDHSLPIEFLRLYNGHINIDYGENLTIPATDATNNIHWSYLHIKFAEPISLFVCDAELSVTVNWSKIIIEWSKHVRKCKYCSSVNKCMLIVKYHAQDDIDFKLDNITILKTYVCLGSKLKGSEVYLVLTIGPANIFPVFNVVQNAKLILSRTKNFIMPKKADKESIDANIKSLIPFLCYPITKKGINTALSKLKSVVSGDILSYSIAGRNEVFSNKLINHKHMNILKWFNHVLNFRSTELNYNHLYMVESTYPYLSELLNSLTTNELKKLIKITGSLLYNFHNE

Structure (SMILES) | pEC50
CC[C@]1(COP(=O)(O)OP(=O)(O)OP(=O)(O)O)O[C@@H](n2ccc(N)nc2=O)[C@H](F)[C@@H]1O [Compound 36a] | > 5.70
C#C[C@]1(COP(=O)(O)OP(=O)(O)OP(=O)(O)O)O[C@@H](n2ccc(N)nc2=O)[C@H](F)[C@@H]1O [Compound 36c] | > 5.70
Nc1nc(=O)n([C@@H]2O[C@](CCl)(COP(=O)(O)OP(=O)(O)OP(=O)(O)O)[C@H](O)[C@@H]2F)cc1F [Compound 97g] | > 5.70
CSC[C@]1(COP(=O)(O)OP(=O)(O)OP(=O)(O)O)O[C@@H](n2ccc(N)nc2=O)[C@@H](F)[C@H]1O [Compound 97b] | > 5.70
COC[C@]1(COP(=O)(O)OP(=O)(O)OP(=O)(O)O)O[C@@H](n2ccc(N)nc2=O)[C@@H](F)[C@H]1O [Compound 97a] | > 5.70
Nc1ccn([C@@H]2O[C@@](COP(=O)(O)OP(=O)(O)OP(=O)(O)O)(C3CC3)[C@@H](O)[C@H]2F)c(=O)n1 [Compound 56d] | > 5.70
CC(F)[C@]1(COP(=O)(O)OP(=O)(O)OP(=O)(O)O)O[C@@H](n2ccc(N)nc2=O)[C@@H](F)[C@H]1O (stereo partly shown) [Compound 36e] | > 5.70
CC(F)[C@]1(COP(=O)(O)OP(=O)(O)OP(=O)(O)O)O[C@@H](n2ccc(N)nc2=O)[C@H](F)[C@@H]1O (stereo partly shown) [Compound 56e] | > 5.70
Nc1ncnc2c1ncn2[C@@H]1O[C@](CCl)(COP(=O)(O)OP(=O)(O)OP(=O)(O)O)[C@@H](O)[C@H]1F [Compound 98b] | > 5.70
Nc1ncnc2c1ncn2[C@@H]1O[C@](CF)(COP(=O)(O)OP(=O)(O)OP(=O)(O)O)[C@@H](O)[C@H]1F [Compound 98c] | > 5.70
Nc1ccn([C@@H]2O[C@](CBr)(COP(=O)(O)OP(=O)(O)OP(=O)(O)O)[C@H](O)[C@@H]2F)c(=O)n1 [Compound 97c] | > 5.70
C=C(C)[C@]1(COP(=O)(O)OP(=O)(O)OP(=O)(O)O)O[C@@H](n2ccc(N)nc2=O)[C@H](F)[C@@H]1O [Compound 36j] | 5.00 to 5.70
Nc1ccn([C@@H]2O[C@](CF)(COP(=O)(O)OP(=O)(O)OP(=O)(O)O)[C@@H](O)[C@H]2F)c(=O)n1 [Compound 56c] | > 5.70
O=c1ccn([C@@H]2O[C@](CCl)(COP(=O)(O)OP(=O)(O)OP(=O)(O)O)[C@@H](O)[C@H]2F)c(=O)[nH]1 [Compound 56a] | 5.00 to 5.70
CC(C)CC[C@]1(COP(=O)(O)OP(=O)(O)OP(=O)(O)O)O[C@@H](n2ccc(N)nc2=O)[C@H](F)[C@@H]1O [Compound 36i] | 5.00 to 5.70

system: hPIV3-eGFP; assay: microbe, parasite or virus in culture; assay type: cell-based, human parainfluenza virus 3; settings: Human respirovirus 3, A549, 72 h

Structure (SMILES) | pEC50
COC[C@]1(CO)O[C@@H](n2ccc(N)nc2=O)[C@H](F)[C@@H]1O [Compound 43a] | < 4.00
CC(F)[C@]1(CO)O[C@@H](n2ccc(N)nc2=O)[C@H](F)[C@@H]1O (stereo partly shown) [Compound 40a] | < 4.00
C=C[C@]1(CO)O[C@@H](n2ccc(N)nc2=O)[C@H](F)[C@@H]1O [Compound 4a] | < 4.00

system: RSV A2 (ATCC: VR-1540); assay: RSV RT-PCR based assay in HEp-2 cells; assay type: cell-based; settings: human respiratory syncytial virus, 96 h; RT-PCR assay, HEp-2 cells, RSV A2 MOI 0.1, 4 days after infection; read-out: EC50

Structure (SMILES) | pEC50
Nc1nc2c(ncn2[C@@H]2O[C@@](CO)(CCl)[C@@H](O)[C@H]2F)c(=O)[nH]1 [Compound 81a] | 5.00 to 6.00
O=c1nc(NO)ccn1[C@@H]1O[C@@](CO)(CCl)[C@@H](O)[C@H]1F [Compound 73a] | 4.00 to 5.00
CC(C)(C)C(=O)OCOP(=O)(OCOC(=O)C(C)(C)C)OC[C@@]1(CCl)O[C@@H](n2ccc(N)nc2=O)[C@H](F)[C@@H]1O [Compound 30a] | > 6.00
C=C=C[C@]1(CO)O[C@@H](n2ccc(N)nc2=O)[C@H](F)[C@@H]1O [Compound 11a] | 5.00 to 6.00
CC(C)(C)C(=O)OCOP(=O)(OCOC(=O)C(C)(C)C)OC[C@@]1(CCl)O[C@@H](n2ccc(=O)[nH]c2=O)[C@H](F)[C@@H]1O [Compound 45a] | 4.00 to 5.00
CC[C@]1(COC(=O)C(C)C)O[C@@H](n2ccc(N)nc2=O)[C@H](F)[C@@H]1OC(=O)C(C)C [Compound 108a] | 5.00 to 6.00
C[C@]1(CO)O[C@@H](n2cnc3c(=O)[nH]c(N)nc32)[C@H](F)[C@@H]1O [Compound 82a] | > 6.00
CC(C)OC(=O)OCOP(=O)(OCOC(=O)OC(C)C)OC[C@@]1(C2CC2)O[C@@H](n2ccc(N)nc2=O)[C@H](F)[C@@H]1O [Compound 105a] | 4.00 to 5.00
CCCCC(=O)OC[C@@]1(CCl)O[C@@H](n2ccc(N)nc2=O)[C@H](F)[C@@H]1OC(=O)CCCC [Compound 48a] | 5.00 to 6.00
Nc1ccn([C@@H]2O[C@@](CO)(C3CC3)[C@@H](O)[C@H]2F)c(=O)n1 [Compound 41a] | 5.00 to 6.00
C=C[C@]1(CO)O[C@@H](n2ccc(N)nc2=O)[C@H](F)[C@@H]1O [Compound 4a] | 4.00 to 5.00
CC(C)C(=O)OC[C@@]1(CCl)O[C@@H](n2ccc(N)nc2=O)[C@H](F)[C@@H]1OC(=O)C(C)C [Compound 46a] | 5.00 to 6.00
C#C[C@]1(CO)O[C@@H](n2cnc3c(=O)[nH]c(N)nc32)[C@H](F)[C@@H]1O [Compound 27a] | 5.00 to 6.00
Nc1nc(=O)n([C@@H]2O[C@@](CO)(CCl)[C@@H](O)[C@H]2F)cc1F [Compound 76a] | > 6.00
CC[C@]1(COP(=O)(OCCSC(=O)C(C)(C)C)OCCSC(=O)C(C)(C)C)O[C@@H](n2ccc(N)nc2=O)[C@H](F)[C@@H]1O [Compound 33a] | > 6.00
N#C[C@]1(CO)O[C@@H](n2cnc3c(=O)[nH]c(N)nc32)[C@H](F)[C@@H]1O [Compound 26a] | 5.00 to 6.00
CC[C@]1(CO)O[C@@H](n2cnc3c(=O)[nH]c(N)nc32)[C@H](F)[C@@H]1O [Compound 39a] | 5.00 to 6.00
CO[C@]1(CO)O[C@@H](n2cnc3c(=O)[nH]c(N)nc32)[C@H](F)[C@@H]1O [Compound 28a] | 5.00 to 6.00
CC[C@]1(COP(=O)(OCOC(=O)C(C)(C)C)OCOC(=O)C(C)(C)C)O[C@@H](n2ccc(N)nc2=O)[C@H](F)[C@@H]1O [Compound 31a] | 5.00 to 6.00
COC[C@]1(COP(=O)(OCOC(=O)OC(C)C)OCOC(=O)OC(C)C)O[C@@H](n2ccc(N)nc2=O)[C@H](F)[C@@H]1O [Compound 106a] | 4.00 to 5.00
C=C[C@]1(CO)O[C@@H](n2cnc3c(=O)[nH]c(N)nc32)[C@H](F)[C@@H]1O [Compound 25a, 2′-Deoxy-2′-fluoro-4′-C-(ethenyl)guanosine] | 4.00 to 5.00
CCC[C@]1(CO)O[C@@H](n2ccc(N)nc2=O)[C@H](F)[C@@H]1O [Compound 21a] | > 6.00

same assay, conditions: human respiratory syncytial virus, HEp-2, 96 h

Structure (SMILES) | pEC50
CC[C@]1(COP2(=O)OCc3cccc(C)c3O2)O[C@@H](n2ccc(N)nc2=O)[C@H](F)[C@@H]1O (stereo partly shown) [Compound 14a] | > 6.00
C#C[C@]1(CO)O[C@@H](n2ccc(N)nc2=O)[C@H](F)[C@@H]1O [Compound 1a] | 4.00 to 5.00

system: Influenza strain A/WSN/33 (H1N1); assay: microbe, parasite or virus in culture; assay type: cell-based; settings: A549, 20 h, read-out: % Inhibition

Structure (SMILES) | pEC50
CC(C)(C)C(=O)OCOP(=O)(OCOC(=O)C(C)(C)C)OC[C@@]1(CCl)O[C@@H](n2ccc(N)nc2=O)[C@H](F)[C@@H]1O [Compound 30a] | 3.60 to 4.00
C#C[C@]1(COP(=O)(N[C@@H](C)C(=O)OC(C)C)Oc2ccccc2)O[C@@H](n2ccc(=O)[nH]c2=O)[C@H](F)[C@@H]1O (stereo partly shown) [Compound 18a] | 3.60 to 4.00
C=C[C@]1(CO)O[C@@H](n2ccc(N)nc2=O)[C@H](F)[C@@H]1O [Compound 4a] | 3.60 to 4.00
C#C[C@]1(CO)O[C@@H](n2cnc3c(=O)[nH]c(N)nc32)[C@H](F)[C@@H]1O [Compound 27a] | 4.00 to 4.70
C=C[C@]1(COP(=O)(N[C@@H](C)C(=O)OC(C)C)Oc2ccccc2)O[C@@H](n2ccc(N)nc2=O)[C@H](F)[C@@H]1O (stereo partly shown) [Compound 16a] | 3.60 to 4.00
N#C[C@]1(CO)O[C@@H](n2cnc3c(=O)[nH]c(N)nc32)[C@H](F)[C@@H]1O [Compound 26a] | 3.60 to 4.00
C=C[C@]1(COP(=O)(N[C@@H](C)C(=O)OC(C)C)Oc2ccccc2)O[C@@H](n2ccc(=O)[nH]c2=O)[C@H](F)[C@@H]1O (stereo partly shown) [Compound 17a] | 3.60 to 4.00
CC[C@]1(CO)O[C@@H](n2cnc3c(=O)[nH]c(N)nc32)[C@H](F)[C@@H]1O [Compound 39a] | 4.00 to 4.70
CO[C@]1(CO)O[C@@H](n2cnc3c(=O)[nH]c(N)nc32)[C@H](F)[C@@H]1O [Compound 28a] | 3.60 to 4.00
CC[C@]1(COP(=O)(OCOC(=O)C(C)(C)C)OCOC(=O)C(C)(C)C)O[C@@H](n2ccc(N)nc2=O)[C@H](F)[C@@H]1O [Compound 31a] | 3.60 to 4.00
Nc1ccn([C@@H]2O[C@@]3(CO)CO[C@H]3[C@H]2F)c(=O)n1 [Compound 12a] | 3.60 to 4.00
C=C[C@]1(CO)O[C@@H](n2cnc3c(=O)[nH]c(N)nc32)[C@H](F)[C@@H]1O [Compound 25a, 2′-Deoxy-2′-fluoro-4′-C-(ethenyl)guanosine] | > 4.70
CCC[C@]1(CO)O[C@@H](n2ccc(N)nc2=O)[C@H](F)[C@@H]1O [Compound 21a] | 3.60 to 4.00
C#C[C@]1(CO)O[C@@H](n2ccc(N)nc2=O)[C@H](F)[C@@H]1O [Compound 1a] | 3.60 to 4.00

system: human parainfluenza virus 3 (hPIV3, ATCC: VR-93); assay: Parainfluenza virus-3 (PIV-3) RT-PCR assay in A549 cells; assay type: cell-based; settings: Human respirovirus 3, 168 h, hPIV3 MOI 0.1, 7 days after infection

Structure (SMILES) | pEC50
COC[C@]1(CO)O[C@@H](n2ccc(N)nc2=O)[C@H](F)[C@@H]1O [Compound 43a] | < 4.00
CC(F)[C@]1(CO)O[C@@H](n2ccc(N)nc2=O)[C@H](F)[C@@H]1O (stereo partly shown) [Compound 40a] | < 4.00
